According to patent US11939324B2, “Compounds for the treatment of epilepsy, neurodegenerative disorders and other CNS disorders” (reMYND N.V., priority 2017, dated 2024):
In brackets after ≈: the same amount, converted by molar mass.

How the values were obtained:
[1] = system: M17-TAU P301L cells; test: TAU-induced toxicity: LDH leakage of retinoic acid incubated M17-TAU P301L cells; type: cell-based, human; settings: Homo sapiens; reduction of LDH activity of retinoic acid incubated M17-TAU P301L cells; read-out: EC50 (μg/ml) TAU-induced toxicity
From the text: A TAU expression plasmid was constructed by sub-cloning the cDNA of human TAU-P301L (encoding for TAU with proline 301 substituted by a leucine residue) into mammalian expression vector pcDNA3.1 resulting in plasmid pcDNA3.1-TAU P301L. Plasmids pcDNA3.1 and pcDNA3.1-TAU P301L were transfected to human neuroblastoma cells ([…]; ATCC No. CRL-2267) and independent clonal lines with the plasmids stably integrated into the genome were selected. […] Expression of the TAU P301L genes in the cell lines was confirmed by Western analysis.
In degenerated or dead cells lactate dehydrogenase (LDH) leaks out of the cells into the extracellular environment due to a loss of plasma-membrane integrity. This principle was used to determine cytotoxicity by quantifying the level of leaked LDH into the growth medium relative to the sum of total LDH activity from living cells and dead cells.
The detailed method for determining cytotoxicity was as follows: From appropriate precultures of M17-3.1 and M17-TAU(P301L) cells were seeded at 2500 cells/cm2 in Optimem Reduced Serum without phenol red (Gibco, Cat. 31985-047) supplemented with 1% fetal calf serum, 1 mM sodium pyruvate, 1× non-essential amino acids, 500 μg/ml G418 0.5× antibiotic/antimycotic. After 3 hours of incubation at 37° C./5% CO2 1 volume of Optimem Reduced Serum (same as described above; except without fetal calf serum) supplemented with 2.5 μM all-trans retinoic acid (ATRA) was added. The cells were further incubated for 7 days. Subsequently, LDH activity was determined using Promega Cytotox 96 Non-Radioactive cytotoxicity assay, (Cat. G1780) according the supplier's instructions.
The M17-TAU P301L cell line made it possible to assess the ability of novel compounds to counteract TAU cytotoxicity. […] These measurements were used to calculate EC50 values.
Exemplary compounds of the present invention are shown in Table 1, with their chemical structure and their EC50 value (expressed in μg/ml) as determined from example 12 in the TAU-induced toxicity experiment.

[2] = system: CA1 pyramidal neurons; test: Neuronal firing rate in brain slices from tgAPP mice (patch clamp, CA1); type: cell-based, mouse; settings: 2 μM, 1 hr perfusion, higher stimuli, FIG. 8
Experimental: Brain slices from wild type and tgAPP mice were incubated with DMSO or Compound 6. Neurons were stimulated with increasing currents and the frequency of action potentials (firing rate) was measured.
In tgAPP mice the frequency of action potentials at higher stimuli was higher.
Acute sagittal brain slices from WT or hAPP mice were prepared by decapitation of the mice after isoflurane anaesthesia. Brains were removed quickly and immersed during 3-4 min in ice-cold freshly prepared cutting artificial cerebrospinal fluid (cutting aCSF) containing (in mM) 214 sucrose, 2.5 KCl, 2 CaCl2, 2 MgSO4, 1.25 NaH2PO2, 26 NaHCO3 and 10 glucose and oxygenated with 95% O2/5% CO2. Sagittal 350 μm slices were generated using a vibratome (VT 1000S; Leica Microsystems) and were incubated in standard carboxygenated aCSF (in mM: 125 NaCl, 2.5 KCl, 2 CaCl2, 2 MgSO4, 1.25 NaH2PO2, 26 NaHCO3 and 10 glucose, osmolarity 305 mOsm) at 34° C. during 20 min. The incubation continued at room temperature (RT) for another hour before each slice was transferred to a submerged recording chamber and perfused continuously with carboxygenated aCSF. […]
Dendritic firing rate of CA1 cells was recorded in response to hyperpolarizing and depolarizing steps (−0.4 to +0.45 nA, steps of 0.05 nA) after a 1 hr perfusion with vehicle or compound at 2 μM. […]

[3] = system: mouse brain slices; test: Afterhyperpolarization of single action potentials in mouse brain slices; type: cell-based; settings: versus vehicle, FIG. 9, p<0.05
Experimental: FIG. 9 represents a graph plotting the afterhyperpolarization (AHP) amplitude of single action potentials by somatic current clamp recordings using mouse brain slices incubated with vehicle or Compound 6. * indicates p<0.05.
Somatic or dendritic (>200 μm from the soma) current-clamp recordings were performed at RT (24 to 28° C.) and slices were continuously perfused with carboxygenated standard aCSF, supplemented with control or test article REM0043039 at 2 μM. For whole-cell recordings, patch pipettes were filled with a solution containing (in mM) 140 K-gluconate, 5 NaCl, 2 MgCl2, 10 HEPES, 0.5 EGTA, 2 MgATP, 0.4 NaGTP, osmolarity 305, pH adjusted to 7.25 with KOH. The soma or dendrite of large CA1 pyramidal neurons were identified and patch-clamped after visual approach of the recording pipette using a combination of infrared light and differential interference contrast (DIC) optics. […] Recordings were terminated when the series resistances exceeded 40 MO. Signals were digitized and low-pass filtered at 10 kHz. The signal was amplified with an Axopatch 200B amplifier, digitized by a Digidata 155 interface and sampled with Clampex 10 (Molecular Devices, CA). […]
Action potentials (AP) after electrical stimulation of mouse brain slices were analysed (FIG. 9). […]

[4] = system: TAU phosphorylation; test: In vivo inhibition of TAU phosphorylation in brain of APP*PS1 mice (Western analysis); settings: 20 mg/kg subcutaneously daily for 2 weeks, 5 month old APP*PS1 mice, versus vehicle, FIG. 6
From the text: FIG. 6 represents graphs plotting quantifications of pathologically phosphorylated TAU species determined by Western blots of brain extracts from transgenic APP mice treated with vehicle or with exemplary Compound 6. The graphs depict the mean normalized TAU signals±SEM. ** indicate p<0.01 relative to vehicle treated animals. The TAU signals were obtained by using antibodies directed against: • (A) AT8 p-TAU, indicates the antibody recognising p-TAU phosphorylated on serine 202 and threonine 205 • (B) AD2 p-TAU, indicates the antibody recognising p-TAU phosphorylated on serines 396 and 404 • (C) phosphorylated TAU on T231 • (D) phosphorylated TAU on S262.
Transgenic human 5 month old APP*PS1 mice (The Journal of Neuroscience, Sep. 1, 2000, 20(17):6452-6458) were treated daily subcutaneously with 20 mg/kg Compound 6 for 2 weeks.
At the end of the treatment period, mice were sacrificed and the corresponding brains were used for biochemical analysis.

SMILES: O=C(NCCc1c[nH]c2ccc(F)cc12)c1cc(Cc2cc(F)ccc2F)on1 [Compound 6]
- EC50 [1]: 0.0034 µg/mL (≈ 8.51 nM)
- frequency of action potentials (firing rate) [2]: significantly lowered the frequency towards wild type level
- afterhyperpolarization (AHP) amplitude of action potentials [3]: increased
- TAU phosphorylation in brain extracts [4]: more effectively reduced TAU phosphorylation
